According to US6248694A, “Plant growth regulator compositions” (BASF Aktiengesellschaft, priority 1999, dated 2001):

How the values were obtained:
[1] = Hygroscopicity (relative water uptake at 50 and 60% relative humidity in air); type: physicochemical
Protocol: 4) Hygroscopicity of compound 1.1 in comparison to mepiquat chloride:
Both compounds were dried to a constant dry weight in vacuum at 40° C. 48 hours. Afterwards approx. 1 g samples (two series of 3 samples each and average values) were stored under 50 and 60% relative humidity in air for 2 and/or 4 weeks. The following results in relative water uptake (wt. % w/w) were found: […]

[2] = pH in water 1 wt. % concentration; type: physicochemical; conditions: 1 wt. % in water
Excerpt: 5) pH in water 1 wt. % concentration 6.78

[3] = Hygroscopic nature, observation in words; type: physicochemical; conditions: solid dried at 50° C. under reduced pressure
[4] = Corrosion trial, test series 2 (DIN No. 52168, modified steel plates, 14 days)
Protocol: (§1) Comparison of (A) mepiquat chloride, with (B) a mixture of mepiquat chloride with disodium octaborate tetrahydrate (Solubor®), and (C) mepiquat pentaborate (compound 1.9) of example 13.
(§2) The tests of this example were conducted according to the method of DIN (Deutsche Industrie Norm) No. 52168, part 1 of November 1981, but using modified steel plates.
(§3) The corrosion tests were conducted on the three different formulations prepared as set forth below. Each formulation was tested with the different steel types set forth below.
(§4) The first formulation, referred to as "mepiquat chloride" in the tables below, was an 8.33% mepiquat chloride aqueous solution (by weight) prepared by diluting a 600 g/l mepiquat chloride preconcentrate. The second formulation, referred to as "mepiquat chloride plus borate salt" in the tables below, was prepared by adding 15 wt. % disodium octaborate tetrahydrate to the same 8.33% aqueous solution of mepiquat chloride as was used in the first formulation.
(§5) The third formulation, referred to as "mepiquat pentaborate"--in the tables below, was prepared from compound 1.9, example 13 by diluting with water to form a 12% mepiquat pentaborate (wt. %) aqueous solution.
(§6) All three abovementioned formulations contained equal amounts of the mepiquat cation.
(§7) One-half liter quantities of each formulation were placed in polyethylene plastic containers (10 cm×10 cm×12 cm (height)). Into each of the containers, two series of steel plate types--12×5 cm^2 (0.2 cm thickness) were inserted.
(§8) In modification of the mentioned DIN, the steel plates were prepared with an additional oxyacetylene torched area, approximately 5 to 7 mm large, horizontally in the middle of the steel plates.
(§9) The torched areas were placed below the solution's surface. (The aim of this modification of the test was to simulate a more serious corrosion and endangering situation.)
(§10) The position of the plates were such that approximately 1/3 of the plates were in air contact. After 14 days the steel plates were examined, washed and cleaned, dried and weighed according to the DIN method above.

[5] = Corrosion trial, test series 1 (DIN No. 52168, modified steel plates, 14 days)
Protocol: as §1, §2, §3, §4, §5, §6, §7, §8, §9, §10

[6] = 50% relative humidity in air, 2 weeks
[7] = 60% relative humidity in air, 2 weeks
[8] = 4 weeks at 50% relative humidity in air
[9] = 4 weeks at 60% relative humidity in air

Compound | pH in water 1 wt. % concentration [2] | Hygroscopicity: water uptake [1, 8] | Hygroscopicity: water uptake [1, 9] | further results
C[N+]1(C)CCCCC1.O.O.O.O.O.O.OB(O)O.OB(O)O.OB(O)O.OB(O)O.OB(O)O.OB(O)O.OB(O)O.OB(O)O.OB(O)O.[Na+].[O-]B([O-])O [Compound 1.1, N,N-Dimethylpiperidinium sodium decaborate hexahydrate] | 6.78 | – | – | Relative water uptake [1, 6]: 4.1 wt. % w/w; Relative water uptake [1, 7]: 7.8 wt. % w/w
C[N+]1(C)CCCCC1 [N,N-dimethylpiperidiniumbicarbonate] | – | – | – | Hygroscopic nature of isolated product [3]: extremely hygroscopic
C[N+]1(C)CCCCC1.[Cl-] [mepiquat chloride, N,N-dimethylpiperidinium chloride, reference compound] | – | – | – | Relative water uptake [1, 6]: 52 wt. % w/w; Relative water uptake ([1]; 50% relative humidity in air, 4 weeks): 58 wt. % w/w; Relative water uptake [1, 7]: 71 wt. % w/w; Relative water uptake ([1]; 60% relative humidity in air, 4 weeks): 78 wt. % w/w; pH values, end ([4]; ST 13, end): 8.34; pH values, initial ([4]; ST 13, initial): 7.67; appearance of the resulting formulations ([4]; ST 13, test series 2): yellow to orange solution, cloudy, sedimentations; pH values, end ([5]; ST 37, end): 7.96; pH values, initial ([5]; ST 37, initial): 7.67; appearance of the resulting formulations ([5]; ST 37, test series 1): yellow to orange solution, cloudy, sedimentations
[Dimethylpiperidinium]2^2+ [B18 Na2 O29 ]^2-×8 H2 O [Compound 1.2] | 7.4 | 5.2 wt. % | 7.0 wt. % | –
[Dimethylpiperidinium]^+ [B8 (NH4)0.3 O12.7 ]^-×4 H2 O [Compound 1.5] | 6.8 | 0.4 wt. % | 0.6 wt. % | –
[Dimethylpiperidinium]2^2+ [B12 Na4 O21 ]^2-×20 H2 O [Compound 1.3] | – | 13.6 wt. % | 28.8 wt. % | –
[Dimethylpiperidinium]^+ [B6.4 Na0.3 O10.3 ]^-×4 H2 O [Compound 1.7] | – | 1.9 wt. % | 4.1 wt. % | –
[Dimethylpiperidinium]^+ [B9 Na0.9 O14.5 ]^-×6H2 O [Compound 1.6] | 7.1 | 2.7 wt. % | 9.0 wt. % | –
